Like-named read-outs stand apart in the source and are kept apart here. Numbered stars: 1 amine (or outer) side, 2 acyl side, 3 side chain; on linkers, the order of the positions; unused ones are H or OH. Square brackets hold non-standard residues; d marks the D form. Ends that are not written are not given here. Peptide text beside a SMILES is read from it. X3 = O=C([C@H](C[C@@H]1[C@H](F)C[C@H](F)C[C@@H]1F)N[*:1])[*:2]; X2 = O=C([C@H](C[C@@H]1C[C@H](F)C[C@H](F)C1)N[*:1])[*:2]; X1 = O=C([C@H](C[C@H]1CC[C@@H](F)CC1)N[*:1])[*:2]; Phe(F5) = N[C@@H](Cc1c(F)c(F)c(F)c(F)c1F)C(=O)O; Phe(4-F) = N[C@@H](Cc1ccc(F)cc1)C(=O)O
Columns and labels:
FPR2 [1] = molecular target: T1, FPR2 (Homo sapiens, UniProt P25090); assay: Competition binding against K(5/6-FAM)-WKYMVm, flow cytometry; parameters: FLAG (N); expressed in transfected cells; details: for IC50: binding affinity (order of magnitude), order of magnitude
T1 sequence (P25090 1-351): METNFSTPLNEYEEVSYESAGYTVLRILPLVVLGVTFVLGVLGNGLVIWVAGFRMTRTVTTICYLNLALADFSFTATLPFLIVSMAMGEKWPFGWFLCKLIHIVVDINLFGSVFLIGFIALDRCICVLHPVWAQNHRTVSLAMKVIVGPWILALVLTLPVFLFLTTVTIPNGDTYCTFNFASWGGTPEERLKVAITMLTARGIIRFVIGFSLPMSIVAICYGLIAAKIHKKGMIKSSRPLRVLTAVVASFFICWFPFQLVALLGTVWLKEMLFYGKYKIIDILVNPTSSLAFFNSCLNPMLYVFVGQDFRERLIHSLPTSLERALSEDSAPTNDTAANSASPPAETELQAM
Experimental: Subsequently, mean fluorescence was measured using flow cytometry (Attune NxT). Data was expressed as a percentage of the maximum binding (i.e., no competitor) and errors were determined as a result of three independent experiments performed in duplicate (Figure 5 ).
Cell Culture and Transfection: Constructs were either transiently or stably expressed in native Human Embryonic Kidney 293 (HEK293) cells and maintained in DMEM containing 10% FCS. Transfections were performed using PEI at a ratio of DNA:PEI of 1:4 for all studies. […]
Competition Binding: Competition binding was performed using a fluorescently labelling ligand using an assay analogous to the classical radiolabelled method.[1] Briefly, human embryonic kidney 293 (HEK293) cells stably expressing human Formyl […]
and incubated for 90 min on ice in the dark to allow equilibrium binding. Subsequently, mean fluorescence was measured by flow cytometry using the Attune NxT. Data was expressed as a percentage of maximum binding (i.e. no competitor) and analysed via nonlinear regression one site model of equilibrium. IC50 values were determined using GraphPad PRISM software.

FPR2 [2] = molecular target: T2, FPR2 (Homo sapiens, UniProt P25090); assay: BRET analysis of β-arrestin 2 recruitment; format: cell-based; details: HEK293, FPR2-Rluc8 + β-arrestin 2-YFP, 37 °C
T2 construct: expressed in transfected cells; host or cells: HEK293, transient transfection
Experimental: (§1) Since these modifications of WKYMVm altered the relative affinity of the compounds to bind to FPR2, a further series of bioluminescence resonance energy transfer (BRET) assays were conducted to determine if there was any change in efficacy, specifically the ability to recruit molecular effectors such as G‐protein or β‐arrestin.^[ [28], [29] ^] Briefly, HEK293 cells were transiently transfected with FPR2‐Rluc8 (donor) in combination with and either mGsi‐Venus or β‐arrestin 2‐YFP (acceptors) and replated after 24 h into white opaque 96‐well plates. Cells were assayed 24 h later at 37 °C, in HEPES‐buffered saline solution (HBSS) with coelenterazine H (5 μM). Cells were then stimulated with increasing concentrations of WKYMVm or analogs. Luminescence and fluorescence values were measured at 460/30 nm (FPR2) and […] (mini‐Gsi or β‐arrestin protein), respectively, and the acceptor: donor ratio was determined, normalized by subtraction of the ratio observed in untreated cells (Figure 7 ). […]
(§2) BRET analysis of β-Arrestin and mini-Gsi recruitment: HEK293 cells were grown on 6 well plates until 90-95% confluency was reached. […] Cells were then stimulated with increasing concentrations of WKYMVm and analysed using ClarioStar Plus plate reader (BMG Labtech) at 10 minutes post agonist addition. […]
T2 sequence (P32121 whole entry partner, one chain of several): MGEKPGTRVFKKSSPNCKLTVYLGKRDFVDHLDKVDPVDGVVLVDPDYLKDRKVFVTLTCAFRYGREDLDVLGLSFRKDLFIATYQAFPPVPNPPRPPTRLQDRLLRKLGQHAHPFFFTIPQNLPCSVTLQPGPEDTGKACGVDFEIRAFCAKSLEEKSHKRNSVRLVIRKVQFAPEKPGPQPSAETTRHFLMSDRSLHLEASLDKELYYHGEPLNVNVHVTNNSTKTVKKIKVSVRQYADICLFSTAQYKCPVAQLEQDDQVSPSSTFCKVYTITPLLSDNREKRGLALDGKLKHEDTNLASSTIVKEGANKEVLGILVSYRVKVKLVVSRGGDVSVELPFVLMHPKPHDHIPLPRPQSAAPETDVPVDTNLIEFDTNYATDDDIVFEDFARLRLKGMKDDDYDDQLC

FPR2 [3] = molecular target: T1, FPR2; assay: BRET analysis of mini-Gsi recruitment; format: cell-based; parameters: expressed in transfected cells; host or cells: HEK293, transient transfection; details: HEK293, FPR2-Rluc8 + mGsi-Venus, 37 °C
Experimental: as §1, §2

T. brucei [4] = tested on: T. brucei; parameters: method as in PMID 34927802; details: previously reported; cited from earlier work
Log P assessment (HPLC) = format: physicochemical
Excerpt: (§3) Accordingly N‐Boc amino acid esters 20a–d were hydrolyzed to their free carboxylic acids 25a–d and then progressed in each case to the corresponding Weinreb–Nahm amides^[ [33] ^] 26a–d. N‐Boc deprotection followed by coupling to N‐Boc‐tryptophan generated dipeptides 27a–d as the required precursors for cyclization. The intramolecular Pictet–Spengler condensations, followed a previous protocol^[ [19] ^] and 4‐monofluoro 28a, 3,5‐difluoro‐ 28b, and 2,3,4,5,6‐pentafluoro‐ 28d keto‐piperazines could be prepared following this method. It is noteworthy that the pentafluoro‐ analog was accompanied by what appeared to be a high level of defluorinated side products, however 28d was conveniently purified by HPLC rather than column chromatography. […] Thus, 4‐monofluoro‐ 28a, 3,5‐difluoro‐ 28b, and 2,3,4,5,6‐pentafluoro‐ 28d cyclohexyl‐amino acid tryptophan diketopiperazines were prepared and explored in antitrypanosomal assays. Given the importance of molecular lipophilicity in the context of medicinal chemistry, a Log P assessment (HPLC) was made of the diketopiperazines products 28a, 28b, and 28d as illustrated in Table 1 . As anticipated, there is an increase in polarity (LogP reduction) as the number of fluorines increases. We also know from previous work[[6b]] that the Ph ring is more polar than cyclohexane but less polar than the progressively fluorinated cyclohexane rings. The keto‐piperazines 28a, 28b, and 28d were assayed^[ [20] ^] against growing cells of T. brucei and T. cruzi, as well as the human cell line, HeLa and the data is presented in Table 1.

T. brucei [5] = assay: Trypanocidal activity against growing cells; format: cell-based, Trypanosoma brucei; details: for EC50: Trypanosoma brucei; for trypanocidal activity against T. brucei: comparison within series and with 29
Excerpt: as §3
Bioactivities assays of Janus face Tryptophan
Parasites were grown in different medium (e.g. T. brucei was grown in HMI-11 medium) with 10% heat-inactivated foetal bovine serum. parasites were counted using CASY TT Cell Counter. Fluorescence was recorded using a FLx 800 plate reader (BioTek) with an excitation wavelength 530–535 nm and emission wavelength of 590–610 nm using Gen5 Reader Control 2.0 Software (BioTek). EC50 values were determined using a 4-parameter non-linear logistic regression equation using GraFit 5.0 (Erithacus Software). SD values were calculated based on curve fitting to n biological replicates performed in parallel.

HeLa = assay: Mammalian cell activity; format: cell-based; details: Homo sapiens
Experimental: Bioactivities assays of Janus face Tryptophan […]
Fluorescence was recorded using a FLx
800 plate reader (BioTek) with an excitation wavelength 530–535 nm and emission wavelength of 590–610 nm using Gen5 Reader Control 2.0 Software (BioTek). EC50 values were determined using a 4-parameter non-linear logistic regression equation using GraFit 5.0 (Erithacus Software). SD values were calculated based on curve fitting to n biological replicates performed in parallel.

[6] = parameters: method as in PMID 29732086; details: ref 6a; cited from earlier work
[7] = molecular target: T3, formyl-peptide receptor type 2 (FPR2), on HEK293 cells (human, UniProt P25090 1-351); assay: FACS; competition with K(5/6-FAM)-WKYMVm; printed as Log IC50 -5.80
T3 chain: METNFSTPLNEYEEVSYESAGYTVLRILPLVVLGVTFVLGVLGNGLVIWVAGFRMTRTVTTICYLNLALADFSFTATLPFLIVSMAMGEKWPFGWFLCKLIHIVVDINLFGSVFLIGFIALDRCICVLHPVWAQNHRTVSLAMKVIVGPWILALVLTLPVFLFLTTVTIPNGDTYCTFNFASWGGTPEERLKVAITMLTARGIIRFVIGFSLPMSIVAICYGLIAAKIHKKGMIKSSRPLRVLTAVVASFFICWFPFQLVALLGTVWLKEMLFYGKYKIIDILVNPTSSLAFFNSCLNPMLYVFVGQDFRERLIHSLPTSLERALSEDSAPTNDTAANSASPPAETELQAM

[8] = molecular target: T3, formyl-peptide receptor type 2 (FPR2), …; assay: FACS; competition with K(5/6-FAM)-WKYMVm; printed as Log IC50 -7.24
[9] = molecular target: T3, formyl-peptide receptor type 2 (FPR2), …; assay: FACS; competition with K(5/6-FAM)-WKYMVm; printed as Log IC50 -6.29
[10] = molecular target: T3, formyl-peptide receptor type 2 (FPR2), …; assay: FACS; competition with K(5/6-FAM)-WKYMVm; printed as Log IC50 -5.33

For `CSCC[C@H](NC(=O)[C@H](C[C@@H]1[C@H](F)C[C@H](F)C[C@@H]1F)NC(=O)[C@H](CCCCN)NC(=O)[C@@H](N)Cc1c[nH]c2ccccc12)C(=O)N[C@H](C(=O)N[C@H](CCSC)C(N)=O)C(C)C` [23c] (H-WK[X3]MV[dM]-NH2), the IC50 (FPR2 [1]) was about 1000 nM.

In the case of `CSCC[C@H](NC(=O)[C@H](C[C@H]1CC[C@@H](F)CC1)NC(=O)[C@H](CCCCN)NC(=O)[C@@H](N)Cc1c[nH]c2ccccc12)C(=O)N[C@H](C(=O)N[C@H](CCSC)C(N)=O)C(C)C` [23a] (H-WK[X1]MV[dM]-NH2; N-terminus assumed), the “efficacy of β-arrestin recruitment” value (FPR2 [2]) is reported as “comparable efficacy”, the “relative binding affinity” value (FPR2 [1]; comparison within the peptide series) is reported as “highest affinity but significantly weaker than that of the WKYMVm 13” and the “efficacy of Gi (mini-Gsi) recruitment” value (FPR2 [3]) is reported as “comparable efficacy”.

In the case of `O=C1NC(Cc2ccccc2)C2NC1Cc1c2[nH]c2ccccc12` (stereo not shown) [compound 29], the EC50 (T. brucei [4]) is given as 52.1 ± 3.5 µM.

In the case of `O=C1NC(CC2CC(F)CC(F)C2)C2NC1Cc1c2[nH]c2ccccc12` (stereo not shown) [28b], the chromatographic logP (Log P assessment (HPLC)) is reported as 2.92 and the EC50 (T. brucei [5]) is reported as 11.3 ± 0.73 µM.

For `CSCC[C@H](NC(=O)[C@H](Cc1c(F)c(F)c(F)c(F)c1F)NC(=O)[C@H](CCCCN)NC(=O)[C@@H](N)Cc1c[nH]c2ccccc12)C(=O)N[C@H](C(=O)N[C@H](CCSC)C(N)=O)C(C)C` [compound 25] (H-WK[Phe(F5)]MV[dM]-NH2), the IC50 (FPR2 [1]) was about 1000 nM.

With `O=C1NC(CC2C(F)C(F)C(F)C(F)C2F)C2NC1Cc1c2[nH]c2ccccc12` (stereo not shown) [28d] the chromatographic logP (Log P assessment (HPLC)) was 2.58, the EC50 (T. brucei [5]) was 22 ± 2.12 µM and the “trypanocidal activity against T. brucei” value (T. brucei [5]) was “least active compound”.

Molecule `CSCC[C@H](NC(=O)[C@H](C[C@@H]1C[C@H](F)C[C@H](F)C1)NC(=O)[C@H](CCCCN)NC(=O)[C@@H](N)Cc1c[nH]c2ccccc12)C(=O)N[C@H](C(=O)N[C@H](CCSC)C(N)=O)C(C)C` [23b] (H-WK[X2]MV[dM]-NH2) has an IC50 (FPR2 [1]) of about 100 nM.

With `O=C1NC(CC2CCC(F)CC2)C2NC1Cc1c2[nH]c2ccccc12` (stereo not shown) [28a] the chromatographic logP (Log P assessment (HPLC)) was 3.02, the EC50 (T. brucei [5]) was 10.7 ± 0.46 µM and the “trypanocidal activity against T. brucei” value (T. brucei [5]) was “best compound”. The EC50 (HeLa) was 105 ± 6.25 µM.

For `O=CC(CC1CCNC1=O)NC(=O)C(CC1C(F)C(F)C(F)C(F)C1F)NC(=O)c1cc2ccccc2[nH]1` (stereo not shown) [compound 8], the “Log P” value [6] is listed as 0.69.

In the case of `CSCC[C@H](NC(=O)[C@H](Cc1ccc(O)cc1)NC(=O)[C@H](CCCCN)NC(=O)[C@@H](N)Cc1c[nH]c2ccccc12)C(=O)N[C@H](C(=O)N[C@H](CCSC)C(N)=O)C(C)C` [compound 13, Trp‐Lys‐Tyr‐Met‐Val‐D‐Met‐NH2, reference compound], the “efficacy of β-arrestin recruitment” value (FPR2 [2]) is reported as “most efficacious” and the “efficacy of Gi (mini-Gsi) recruitment” value (FPR2 [3]) is reported as “most efficacious”.

In the case of `COC(=O)C=CC(CC1CCNC1=O)NC(=O)C(CC1C(F)C(F)C(F)C(F)C1F)NC(=O)C=Cc1ccccc1` (stereo not shown) [compound 9], the “Log P” value [6] is listed as 1.21.

For `CSCC[C@H](NC(=O)[C@H](Cc1ccc(F)cc1)NC(=O)[C@H](CCCCN)NC(=O)[C@@H](N)Cc1c[nH]c2ccccc12)C(=O)N[C@H](C(=O)N[C@H](CCSC)C(N)=O)C(C)C` [compound 24] (H-WK[Phe(4-F)]MV[dM]-NH2), the IC50 (FPR2 [1]) was about 100 nM.

WK[all‑cis trifluorocyclohexylalanine]MV[dM]-NH2 [W-peptide analog 23c (all-cis trifluorocyclohexylalanine in place of Tyr3 of WKYMVm)] showed an IC50 [7] of 1580 nM.

B1: W-peptide analog 24 (4-fluorophenylalanine in place of Tyr3 of WKYMVm) (peptide)
peptide: WK[Phe(4-F)]MV[dM]-NH2
modifications: N-terminus assumed
SMILES: CSCC[C@H](NC(=O)[C@H](Cc1ccc(F)cc1)NC(=O)[C@H](CCCCN)NC(=O)[C@@H](N)Cc1c[nH]c2ccccc12)C(=O)N[C@H](C(=O)N[C@H](CCSC)C(N)=O)C(C)C
notes: last residue D-methionine; also called 4-fluorophenyl-modified peptide 24; 4-fluorophenylalanine analog 24; source: synthetic peptide (microwave-assisted SPPS, preparative HPLC)
B1 gave an IC50 [8] of 57.5 nM.

B2: W-peptide analog 25 (pentafluoroaryl phenylalanine in place of Tyr3 of WKYMVm) (peptide)
peptide: WK[Phe(F5)]MV[dM]-NH2
modifications: N-terminus assumed
SMILES: CSCC[C@H](NC(=O)[C@H](Cc1c(F)c(F)c(F)c(F)c1F)NC(=O)[C@H](CCCCN)NC(=O)[C@@H](N)Cc1c[nH]c2ccccc12)C(=O)N[C@H](C(=O)N[C@H](CCSC)C(N)=O)C(C)C
notes: last residue D-methionine; also called pentafluoroaryl motif; source: synthetic peptide (microwave-assisted SPPS, preparative HPLC)
With B2 the IC50 [9] was 513 nM.

With WK[all‑cis pentafluorocyclohexylalanine]MV[dM]-NH2 [W-peptide analog 23d (all-cis pentafluorocyclohexylalanine in place of Tyr3 of WKYMVm)] the IC50 [10] was 4.68 µM.
